Test results taken from PMC9489722, “Identification and development of a subtype-selective allosteric AKT inhibitor suitable for clinical development” (Scientific Reports, 2022).

What was measured:
A549 xenografts = experiment: Anti-tumour efficacy study in A549 lung cancer xenograft model; format: in vivo, mouse
Procedure: For efficacy in A549 xenografts, 90 male BALB/c nude mice aged 6–8 weeks and weighing approximately 20–26 g were inoculated subcutaneously in the right flank with 1 × 10^7 A549 tumour cells (ATCC) in 0.1 mL of PBS with Matrigel (1:1) to aid tumour development. When the mean tumour size reached approximately 150 mm^3, 10 mice were randomised to each experimental group, using a randomised block approach. Groups sizes were devised based on past experience of the provider. Treatment started on Day 11 after tumour inoculation with mice receiving ALM301 (either 10, 30 or 100 mg/kg) or vehicle control. Tumour size was measured twice weekly in two dimensions using a caliper, and the volume expressed in mm^3 using the formula: V = 0.5 (a × b^2), where a and b are the long and short diameters of the tumour, respectively.

MCF-7 cells = experiment: Cell cycle flow cytometry; format: cell-based
Procedure: MCF-7 breast cancer cells were treated with increasing concentrations of ALM301 (0.1–100 µM) for 72 h. Post treatment, media containing detached cells was collected for each sample and the remaining adherent cells detached using 0.1% EDTA in PBS. Resulting cell suspensions were incorporated with associated media, centrifuged to form a pellet, washed with 1% FCS in PBS and fixed using ice-cold ethanol. Samples were stored at 4 °C for 24 h before staining with propidium iodide (10 µg/mL) (Sigma) containing 2.5 mg/mL RNase A (Qiagen) for 30 min at 37 °C and stored overnight at 4 °C before analysis. A minimum of 10,000 cells per sample were analysed for DNA content using a FACSCalibur flow cytometer and CellQuest Pro software (Becton Dickinson).

[1] = Pharmacokinetic study in Sprague–Dawley rats; format: in vivo, rat; conditions: male SD rats
Procedure: Eight rats were purchased and 6 used on the PK study (3 per administration route). The remaining rats were purchased in case of mis-dosing events and were used to obtain blank biological matrix. Compounds were administered as single i.v. doses at 1 mg free base/kg or single oral doses at 5 mg free base/kg, with blood samples obtained from three rats per dose route, at 9 time-points out to 24 h post-dose. Both the intravenous and oral doses were prepared at a concentration of 1 mg free base/mL in a mixture of 5% DMSO/95% saline. Blood samples were centrifuged to give plasma. Plasma proteins were precipitated, and compounds extracted by addition of six volumes of acetonitrile containing warfarin as internal standard. Samples were centrifuged at 4000 rpm for 30 min and the supernatants were analysed on a Waters Xevo TQ mass spectrometer. Multiple Reaction Monitoring (MRM) methods were developed for each test compound using Waters IntelliStart software.
Quantification of test compounds was by extrapolation from calibration lines prepared in control rat plasma and analysed concurrently with experimental samples.
Non-compartmental analysis was performed using the software package PK Solutions 2.0 from Summit Research Services to produce the PK parameters. AUC values were calculated by the trapezoidal method.
Oral bioavailability was estimated by comparison of the drug concentration/time AUCs for individual animals after oral dosing with the mean AUC from i.v. doses.

[2] = tested on: pAKT^S473 in A549 tumours; experiment: PK/PD study in A549 lung cancer xenograft model; format: in vivo, mouse; conditions: single oral dose 10, 30 or 100 mg/kg
Procedure: In order to understand the relationship between ALM301 plasma exposure and in vivo AKT target engagement over time, a PK/PD study was carried out in a A549 lung cancer xenograft model. […] ALM301 plasma concentrations and levels of pAKT^S473 in tumours were measured using western blotting and immunohistochemistry (Fig. 4A, B and Supplementary Fig. S4A–C). […] Tumour sections were collected following one dose of either vehicle or 30 mg/kg of ALM301 at noted time intervals (1 h, 2 h, 4 h, 8 h, 24 h). Tissue sections were subsequently stained with pAKT antibody (brown) staining and scored for pAKT staining using a scale of 1–4 (low to high) (Fig. 4B).
For pharmacokinetic/pharmacodynamic (PK/PD) studies in A549 lung cancer xenografts, 150 male BALB/c nude mice aged 6–8 weeks and weighing approximately 18–22 g were inoculated with 1 × 10^7 A549 tumour cells (ATCC) in 0.1 mL of PBS with Matrigel (1:1) subcutaneously into the right flank. Once the mean tumour size reached 150–250 mm^3, the mice were randomised into treatment groups (18 mice per group) using a randomised block design (first, experimental animals are divided into homogeneous blocks according to their initial tumour volume; secondly, within each block, randomisation of animals to treatment groups was conducted so that each animal had the same probability of being assigned to a given treatment, thereby reducing systematic bias). Group sizes were devised based on previous pilot studies using a minimal numbers approach of n = 3 tumours per time-point (6 time-points per dose level). […] Tumour size was measured twice weekly in two dimensions using a caliper, and the volume expressed in mm^3 using the formula: V = 0.5 (a × b^2), where a and b are the long and short diameters of the tumour, respectively.

MCF-7 xenografts = experiment: Efficacy study in MCF-7 breast cancer xenograft model; format: in vivo; conditions: MCF-7 xenograft; for tumour regression: p.o.
Procedure: For efficacy in MCF-7 xenografts, 150 SCID female mice aged 6–8 weeks and weighing approximately 18–22 g were implanted with 1 × 10^7 MCF-7 tumour cells (ATCC) subcutaneously in the right flank. […] Once mean tumour size reached approximately 150 mm^3, mice were randomised to either control or treatment groups (n = 10/group) using a randomised block approach. Groups sizes were devised based on past experience of the provider. […] Tumour size was measured twice weekly in two dimensions using a caliper, and the volume expressed in mm^3 using the formula: V = 0.5 (a x b^2), where a and b are the long and short diameters of the tumour, respectively.

[3] = In vitro microsomal stability, human; format: in vitro ADME; conditions: pH 7.4; human liver microsomes; read-out: human LM CLint
Procedure: Compounds (final concentration = 1 µM; final DMSO concentration = 0.1%) were incubated in 0.1 M phosphate buffer at pH 7.4 with liver microsomes (human, mouse, rat or dog; 0.5 mg of protein/mL) at 37 °C. Reactions were started by addition of NADPH in 0.1 M phosphate buffer pH 7.4 (final concentration 1 mM). Reactions were quenched by addition of ice-cold methanol and frozen. The supernatants were analysed by LC/MS/MS on a Waters Acquity I-Class coupled to a Waters Xevo TQD mass spectrometer. A Waters BEH C18 2.1 × 50 mm 1.7 µm column was used and mobile phases consisted of water and methanol containing 0.1% formic acid as modifier. Analysis was by multiple reaction monitoring and conditions were optimised for each test compound.

For `CCN1C(=O)COc2nc(-c3ccc([C@]4(N)C[C@@H](O)C4)cc3)c(-c3ccccc3)cc21` [ALM301, 6-(4-((1S,3S)-1-amino-3-hydroxycyclobutyl)phenyl)-1-ethyl-7-phenyl-1H-pyrido[2,3-b][1,4]oxazin-2(3H)-one], the “tolerability / body weight” value (A549 xenografts; 100 mg/kg dosing group, recovered after every other day dosing) was “Moderate bodyweight loss”, the “tolerability / body weight” value (A549 xenografts; 10 and 30 mg/kg dose groups) was “no body weight loss or adverse effects observed” and the “tumour growth inhibition (TGI)” value (A549 xenografts; p.o. 10 mg/kg q.d. × 28) was 23%. For the same compound, the “tumour growth inhibition (TGI)” value (A549 xenografts; p.o. 30 mg/kg q.d. × 28) was 31%, the “tumour growth inhibition (TGI)” value (A549 xenografts; p.o. 100 mg/kg q.d × 3 then q.o.d. × 25) was 41% and the “sub-G0 population (cell-cycle analysis)” value (MCF-7 cells; MCF-7, 0.1–100 µM, 72 h) was “increase of sub-G0 population in a concentration dependent manner”. The “increase in sub-G0 population compared to ALM301 alone” value (MCF-7 cells; MCF-7, ALM301 in combination with tamoxifen) was 4.5 ×, the clearance ([1]; Sprague-Dawley, rat, plasma, iv, 1 mg/kg i.v., read-out: Rat PK CL) was 19 mL/min/kg and the Vd ([1]; Sprague-Dawley, rat, plasma, iv, 1 mg/kg i.v., read-out: Rat PK Vd) was 13 L/kg. For the same compound, the “Rat PK F” value ([1]; 1 mg/kg i.v. and 5 mg/kg p.o., AUC 0-∞) was 26%, the “pAKT^S473 in tumours” value ([2]; all timepoints over 24 h, BALB/c mice bearing A549 xenografts) was “almost total abrogation” and the total plasma concentrations ([2]; mice bearing A549 xenografts) was “dose-dependent increases”. For the same compound, the tumour regression (MCF-7 xenografts; ALM301 3 mg/kg q.d. in combination with tamoxifen 5 mg/kg q.d.) was 57%, the tumour regression (MCF-7 xenografts; ALM301 10 mg/kg q.d. in combination with tamoxifen 5 mg/kg q.d.) was 50% and the “tolerability / animal body weight” value (MCF-7 xenografts; monotherapy and in combination with tamoxifen, any dose levels) was “no significant effects on animal body weight”. For the same compound, the “tumour growth inhibition, single agent” value (MCF-7 xenografts; p.o. 3 or 10 mg/kg once-a-day) was “minimal tumour growth inhibition” and the microsomal CLint at 1 µM [3] was 3.7 µL/min/mg.
